Converted amounts (≈) assume the structure as drawn. Read-outs that look alike come from different tables or passages of the source.
Legend:
different parasites = system: different parasites; design: method as in PMID 32196500; conditions: cited from earlier work
Escherichia coli = conditions: cited from earlier work
[1] = Transmembrane anion transport (chloride efflux) in POPC vesicles; conditions: for anionophore activity (in words): chloride efflux
Protocol: The transmembrane anion transport activity of the compounds was explored in phospholipid (1-palmitoyl-2-oleoyl-sn-glycero-3-phosphocholine (POPC)) vesicles. Chloride efflux from chloride loaded vesicles was monitored using a chloride selective electrode. A solution of the studied compound in DMSO, usually 5 µL to avoid the influence of the organic solvent during the experiments, was added, and once the experiment was finished, a surfactant (Triton-X, 10% dispersion in water, 20 µL) was used to lyse the vesicles and release all the encapsulated chloride. This value was taken as 100% release and used as such. The experiments were repeated using different concentrations of the studied compounds and normalized chloride efflux at […] against the concentration of compound plotted. The data were then fitted with the Hill equation and an EC50 parameter, representing the concentration of compound eliciting 50% of chloride release was calculated. Assays in which the external medium was nitrate or bicarbonate were performed.

Pseudomonas aeruginosa = conditions: cited from earlier work
[2] = system: epimastigotes of T. cruzi (CL strain, clone B5); design: method as in PMID 31210760; conditions: read-out: IC50 against epimastigotes of T. cruzi (earlier study); cited from earlier work
Enterococcus faecalis = conditions: cited from earlier work
Plasmodium yoelii = system: Plasmodium yoelii; design: method as in PMID 26305125; conditions: murine model; cited from earlier work
[3] = system: epimastigotes of T. cruzi (CL strain, clone B5); assay: Epimastigote susceptibility assay (monotherapy); assay type: cell-based, Trypanosoma cruzi; conditions: for IC50: Trypanosoma cruzi, CLB strain, 72 h at 28 °C, mean ± SD, read-out: IC50 (µM) in epimastigotes of T. cruzi; for activity against the extracellular and replicative forms of T. cruzi (in words): epimastigotes
Protocol: The CL-B5 strain was stably transfected with the Escherichia coli β-galactosidase gene (lacZ) and routinely maintained in exponential growth by weekly passages. Trypomastigotes of the CL-B5 strain were obtained as previously reported.
The screening assays were performed in 96-well microplates (WWR Int LLC) containing serially diluted concentrations of each compound and seeded with 2.5 × 10^5 epimastigotes/mL harvested during the exponential growth phase. Growth, medium, and drug blanks were used in each assay as controls. An internal control of the reference drug, benznidazole, was also included. After 72 h at 28 °C, 50 µL of the substrate chlorophenol red-β-D-galactopyranoside (CPRG; Roche) diluted in 0.9% Triton X-100 solution (EMD, Darmstadt, Germany) were added at a final concentration of 200 µM. Then, after 3 h at 37 °C, measurements were performed in a scanning multiwell spectrophotometer (ELISA Multiskan Reader, BioTek Instruments, Inc., Winooski, VT, USA) at 595 nm. Each concentration was tested in triplicate and the experiments were performed three times independently. The efficacy of the compounds was calculated by determining the percentage of epimastigote growth (% EG value) as follows:(1) % Epimastigote growth=(AE−AEB)/(AC−ACB)×100 where AE is the absorbance of the experimental group, AEB the absorbance of the drug blank, AC the absorbance of the control group, and ACB the absorbance of the culture medium blank. The IC50 values (the drug concentration that eliminates 50% of the parasites) were determined for each compound using the GraphPad Prism software (Version 5.0.0 for Windows, GraphPad Software, San Diego, CA, USA).

[4] = POPC vesicles, ref 2 (Gianotti et al., Int. J. Mol. Sci., 2020), cited from earlier work
[5] = Cytotoxicity assay (resazurin) in L-929 fibroblasts; assay type: cell-based, mouse; conditions: mouse, L-929 fibroblasts (NCTC clone 929); L-929, 16 µM, n = 9; read-out: % Cytotoxicity ± SD
From the text: (§1) Mouse L-929 fibroblasts (NCTC clone 929, ECACC 88102702) were used for both drug toxicity and infection assays. Cell line was obtained from Dr. Concepció Soler, Dept. Pathology & Experimental therapeutics, Faculty of Medicine and Health Sciences, University of Barcelona, Spain. Human hepatocarcinoma Hep G2 cells (American Type Culture Collection (ATCC HB-8065)) were employed only in the drug toxicity assays and were obtained from Dr. Neus Agell, Cell Biology Research Group, Faculty of Medicine and Health Sciences, University of Barcelona, Spain.
(§2) Cells were seeded by trypsinization in 96-well microplates (L-929: 4 × 10^3 cells/well; Hep G2: 1.5 × 10^4 cells/well) and incubated for 24 h at 37 °C to allow cell attachment. On the following day, the medium was discarded and replaced with a fresh medium containing the different concentrations of the drugs. Hep G2 cells were treated with concentrations of 100, 10, and 1 µM of the different drugs, while L-929 cells were treated with a wider range of concentrations in order to calculate the IC50 value (the drug concentration that inhibits 50% of cell growth). Medium, growth, and drug blanks were used in each test as controls. Plates were incubated again for another 24 h. After treatment, 20 µL of resazurin diluted in 1X phosphate-buffered saline (PBS; Sigma Aldrich) was added at a final concentration of 70 µM. The plates were incubated for another 24 h, after which fluorescence was measured in a microplate reader (FLUOstar OPTIMA, BMG LABTECH GmbH, Ortenberg, Germany) at an excitation wavelength of 530 nm and an emission wavelength of 590 nm. Each concentration was tested in triplicate and the experiments were repeated three times independently. Results indicated the percentage of toxicity (% T value). (3) % Toxicity=100−(AE−AEB)/(AC−ACB)×100 where AE is the absorbance of the experimental group, AEB the absorbance of the drug blank, AC the absorbance of the untreated cells, and ACB the absorbance of the culture medium blank. For the L-929 fibroblasts, the IC50 values (the drug concentration that inhibits 50% of cell growth) were calculated for each compound using the GraphPad Prism software.

[6] = system: murine L-929 fibroblasts (NCTC clone 929); assay: as above; assay type: cell-based, mouse; conditions: Mus musculus, L929; read-out: IC50 (µM) L-929 cell growth inhibition
From the text: as §1, §2

[7] = external bicarbonate, read-out: EC50 (µM) HCO3–/Cl–
[8] = external nitrate, read-out: EC50 (µM) NO3–/Cl–

Cc1c(-c2c(-c3ccc(F)o3)sc3ncnc(O[C@H](Cc4ccccc4OCc4ccnn4CC(F)(F)F)C(=O)O)c23)ccc(OCCN2CCN(C)CC2)c1Cl [Compound S63845]
effect on the viability of different parasites (in words) (different parasites): do not have an effect

Cc1nn(C)c(COc2ccc(N3CCN(S(=O)(=O)N(C)C)CC3)cc2)c1-c1cccc2c(CCCOc3cccc4ccccc34)c(C(=O)O)n(CCN3CCOCC3)c12 [Compound A-1210477]
effect on the viability of different parasites (in words) (different parasites): do not have an effect

CCCCCC1=C/C(=C/c2[nH]c(-c3ccc[nH]3)cc2OC)N=C1C [Prodigiosin, prodigiosin]
minimal inhibitory concentration (MIC) (Escherichia coli): 2 µM (≈ 0.647 µg/mL)
anionophore activity (in words) [1]: most active anionophore
EC50 [1, 7]: 0.06 µM
EC50 [1, 8]: 0.002 µM
minimal inhibitory concentration (MIC) (Pseudomonas aeruginosa): 8 µM (≈ 2.59 µg/mL)
IC50 [2]: ≤ 800 nM
minimal inhibitory concentration (MIC) (Enterococcus faecalis): 2 µM (≈ 0.647 µg/mL)

CC1(C)CCC(c2ccc(Cl)cc2)=C(CN2CCN(c3ccc(C(=O)NS(=O)(=O)c4ccc(N[C@H](CCN5CCOCC5)CSc5ccccc5)c(S(=O)(=O)C(F)(F)F)c4)cc3)CC2)C1 [navitoclax]
effect on the viability of different parasites (in words) (different parasites): do not have an effect

CCc1c(-c2ccc[nH]2)[nH]c(C=NC2CCCCCC2)c1C [KAR425]
in vivo activity against P. yoelii infection (in words) (Plasmodium yoelii): potent in vivo activity

CC1(C)CCC(CN2CCN(c3ccc(C(=O)NS(=O)(=O)c4ccc(NCC5CCOCC5)c([N+](=O)[O-])c4)c(Oc4cnc5[nH]ccc5c4)c3)CC2)=C(c2ccc(Cl)cc2)C1 [venetoclax]
effect on the viability of different parasites (in words) (different parasites): do not have an effect

Cc1c(-c2ccc(N3CCc4cccc(C(=O)Nc5nc6ccccc6s5)c4C3)nc2C(=O)O)cnn1CC12CC3CC(CC(C3)C1)C2 [Compound A-1331852]
effect on the viability of different parasites (in words) (different parasites): do not have an effect

CCCCn1cc(-c2cc(OC)c(/C=C3\N=C(C)C=C3C)[nH]2)nn1 [EH123]
Selectivity index (SI), Epimastigotes ([3]; IC50 for L-929 fibroblasts / IC50 for T. cruzi epimastigotes): 0.86
IC50 [3]: 199 ± 49.9 µM
activity against the extracellular and replicative forms of T. cruzi (in words) [3]: did not show detectable levels of trypanocidal activity
EC50 [4, 7]: 1.91 µM
EC50 [4, 8]: 0.024 µM
cytotoxicity at 24 h, 16 µM [5]: 3.72 ± 1.14%
IC50 [6]: 171.7 ± 0.5 µM

CC/N=C/c1[nH]c(-c2ccc[nH]2)c(CC)c1C [MM5]
IC50 [3]: 130 ± 34.7 µM
activity against the extracellular and replicative forms of T. cruzi (in words) [3]: did not show detectable levels of trypanocidal activity
anionophore activity (in words) [1]: very limited activity
EC50 (µM) HCO3–/Cl– ([1]; external bicarbonate): not active enough to calculate EC50 value
EC50 (µM) NO3–/Cl– ([1]; external nitrate): not active enough to calculate EC50 value

Reference: paper PMC8151848, “Tambjamines and Prodiginines: Biocidal Activity against Trypanosoma cruzi” (Pharmaceutics, 2021)
